The values that follow come from patent US7314729B2, “Methods and kits for transferases” (Promega Corp., priority 2002, dated 2008).

Common to all, as to format: biochemical
Experiment [1] concerns the target T1, tyrosine phosphatase PTP-1B (Homo sapiens, UniProt P18031).
T1 sequence (P18031 1-435): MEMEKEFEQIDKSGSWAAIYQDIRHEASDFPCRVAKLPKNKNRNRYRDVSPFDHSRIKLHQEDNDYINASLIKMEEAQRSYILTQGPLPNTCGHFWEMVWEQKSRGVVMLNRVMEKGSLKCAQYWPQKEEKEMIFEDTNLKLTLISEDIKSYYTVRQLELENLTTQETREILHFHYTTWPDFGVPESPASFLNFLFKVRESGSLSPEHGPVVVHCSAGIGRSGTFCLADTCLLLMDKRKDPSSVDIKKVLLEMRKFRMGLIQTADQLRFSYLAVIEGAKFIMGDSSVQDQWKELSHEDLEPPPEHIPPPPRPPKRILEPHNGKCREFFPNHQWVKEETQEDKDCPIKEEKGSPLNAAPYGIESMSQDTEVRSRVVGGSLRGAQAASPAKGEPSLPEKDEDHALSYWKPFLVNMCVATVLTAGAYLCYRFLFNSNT
Kind of experiment: PTP-1B phosphatase assay with inhibitors (bis-PTK5p-R110 phosphopeptide, Aminopeptidase M). To be noted: 25 mU/well PTP-1B, inhibitor zero up to 50 uM; FIG. 10.
Procedure: The effect of various inhibitors were tested on the dephosphorylation of bis-PTK5p-R110 by the enzyme tyrosine phosphatase PTP-1B. […] Inhibitors were included in the reactions at concentrations ranging from zero inhibitor up to 50 uM. Phosphatase reactions were initiated by adding PTB-1B, which was added to each reaction at 25 mU/well. Control reactions containing no enzyme were also run.
Phosphatase reactions were terminated with 25 ul of a solution of Na3VO4 and 25 mU/well of Aminopeptidase M. Reactions were incubated at room temperature for 60 minutes.

The target in experiment [2] is T2, serine/threonine phosphatase PP2A (Homo sapiens, UniProt P67775).
T2 construct: purchased Promega (Madison, Wis.)
Kind of experiment: PP2A phosphatase assay with inhibitors (bis-STP-R110 phosphopeptide, Aminopeptidase M). As for the experimental part:
PP2A activity with STP-R-110. The phosphatase activity of phosphatase 2A (PP2A) was carried out in 50 ul volume containing 5 uM of phosphopeptide substrate bis-STP-R110 (RRAT(PO3)VA (SEQ. ID. NO:5)-R110-[…]), 40 mM Tris-HCl, pH 7.5, and 0.1 mg/ml BSA. Phosphatase reactions were initiated by adding the enzyme serine/threonine phosphatase PP2A from Promega (Madison, Wis.). The amount of PP2A added to each reaction was titrated in ½ increments, in a range from 0.0075 ng (0.015 munits) to 7.5 nanograms (15 munits), plus control reactions containing no enzyme. Phosphatase reactions were carried out for 10 minutes at room temperature in 96-well plates.
Phosphatase reactions were terminated with 25 ul of 2 uM okadaic acid ((9,10-Deepithio-9,10-didehydroacanthifolicin) (sodium salt)), a known inhibitor of PP2A. After termination, 25 mU/well of Aminopeptidase M was added in 40 mM Tris buffer, pH 7.5, 0.1 mg/ml BSA. The aminopeptidase reaction was incubated at room temperature, 25° C., for 90 minutes. Fluorescence was read as in Example 1.

The target of experiment [3] is T3, catalytic subunit of cAMP-dependent protein kinase (PKA) (Bos taurus, UniProt P00517).
T3 construct: purchased Promega Corp., Madison, Wis
Kind of experiment: PKA kinase assay with inhibitors (bis-kemptide R110 substrate, Aminopeptidase M, fluorescence). The conditions noted are these: 0.5 units PKA, 5 μM bis-kemptide, 50 μM ATP; FIG. 2.
Procedure: The kinase activity of the catalytic subunit of cAMP-dependent protein kinase (PKA) from Promega Corp., Madison, Wis. was tested in triplicate in a 96-well plates using the following reaction components: 40 mM Tris-HCl, pH 7.5, 20 mM MgCl2, 0.1 mg/ml bovine serum albumin (BSA), 50 μM ATP, and 5 μM of LRRASLG (SEQ. ID. NO: 1)-R110—GLSARRL, a bis-rhodamine peptide kinase substrate also known as “bis-kemptide.” The final reaction volume was 50 uL. […] All kinase reactions were incubated at room temperature for 20 minutes.
The kinase reactions were terminated by adding a termination/detection reagent (25 ul) containing 100 mM EDTA and 25 mU aminopeptidase M (Calbiochem, San Diego, Calif.).
Enzymatic activity of the kinase was measured by taking a reading of the fluorescence, at the time of addition of actinonin and 3 hrs later to test the stability of the signal, with an excitation at 480 nm and fluorescence emission at 520-530 nm.
PKA Assay With Inhibitors. The effects of various inhibitors of PKA kinase were tested.
Fluorescence was detected with an excitation of 480 nm and fluorescence emission at 520-530 nm.

T2 sequence (P67775 whole entry): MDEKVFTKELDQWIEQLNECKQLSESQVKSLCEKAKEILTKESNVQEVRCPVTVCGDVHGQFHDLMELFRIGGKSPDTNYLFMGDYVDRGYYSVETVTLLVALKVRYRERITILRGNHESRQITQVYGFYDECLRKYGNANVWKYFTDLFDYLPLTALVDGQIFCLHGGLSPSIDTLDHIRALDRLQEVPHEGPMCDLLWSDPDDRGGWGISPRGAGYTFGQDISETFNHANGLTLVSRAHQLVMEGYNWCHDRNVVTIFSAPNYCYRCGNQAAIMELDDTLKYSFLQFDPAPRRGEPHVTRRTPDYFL

`CN[C@@H]1C[C@H]2O[C@@](C)([C@@H]1OC)n1c3ccccc3c3c4c(c5c6ccccc6n2c5c31)C(=O)NC4` [staurosporin, (9S-(9α,10,11β,13α)-2,3,10,11,12,13-Hexahydro-10-methoxy-9-methyl-[1-(methylamino)-epoxy-1H,9H-diindolo[1,2,3-gh:3′,2′,1′-1m]pyrrolo{3,4-j]][1,7]benzodiazonin-1-one)]: in experiment [1], the “inhibition of dephosphorylation of bis-PTK5p-R110 by PTP-1B” value is reported as “had no effect”.

Turning to `C=C1[C@@H](O)[C@@H]2O[C@]3(CC[C@H](/C=C/[C@@H](C)[C@@H]4CC(C)=C[C@@]5(O[C@H](C[C@@](C)(O)C(=O)O)CC[C@H]5O)O4)O3)CC[C@H]2O[C@@H]1[C@@H](O)C[C@H](C)[C@H]1O[C@@]2(CCCCO2)CC[C@H]1C` [okadaic acid, 9,10-Deepithio-9,10-didehydroacanthifolicin], the half-maximal inhibitory concentration (IC50) (in general, the point on the concentration scale where inhibition reaches its midpoint) in experiment [2] is under 1 nM. Also, the “inhibition of dephosphorylation of the substrate by PP2A” value in experiment [2] (2 nanograms PP2A (4 munits), 5 uM phosphopeptide substrate, inhibitor zero up to 100 nM, FIG. 7) is on record as “inhibited”.

`N#CC(=C(N)Sc1ccccc1N)C(C#N)=C(N)Sc1ccccc1N` [U0126, 1,4-diamino-2,3-dicyano-1,4-bis-(2-aminophenylthio)butadiene]: the “effect on kinase activity of PKA (fluorescence output with increasing inhibitor concentration)” value in experiment [3] was “without effect”.

For the compound `CC1CNCCN1S(=O)(=O)c1cccc2cnccc12` (stereo not drawn) [H7, 1-(5-isoquinolinesulfonyl)-2-methylpiperzine], the “effect on kinase activity of PKA (fluorescence output with increasing inhibitor concentration)” value in experiment [3] was “without effect”.

Turning to Sodium vanadate [Na3VO4], the “inhibition of dephosphorylation of bis-PTK5p-R110 by PTP-1B” value in experiment [1] was “inhibition of PTP 1B enzyme activity”.
